{"source": "ChEMBL document CHEMBL2417472", "about": "“Synthesis and biological evaluation of novel benzyl-substituted (S)-phenylalanine derivatives as potent dipeptidyl peptidase 4 inhibitors” (Bioorg Med Chem, 2013)", "key": {"Rattus norvegicus [1]": {"species_on_record": "Rattus norvegicus", "experiment": "animal or person", "conditions": "Sprague-Dawley, po, read-out: INH"}, "Rattus norvegicus [2]": {"species_on_record": "Rattus norvegicus", "experiment": "animal or person", "conditions": "Sprague-Dawley, po, read-out: INH", "remark": "listed apart in the source"}, "Rattus norvegicus [3]": {"species_on_record": "Rattus norvegicus", "experiment": "animal or person", "conditions": "Sprague-Dawley, po, read-out: INH", "remark": "listed apart in the source"}, "Rattus norvegicus [4]": {"tested_on": "Rattus norvegicus", "experiment": "Antidiabetic activity in po dosed Sprague-Dawley rat assessed as inhibition of glucose excursion administered 30 mins prior glucose challenge measured over 30 to 120 mins post challenge by OGTT", "assay_type": "functional, organism-based"}}, "data": [{"smiles": "N#C[C@@H]1CCCN1C(=O)[C@@H](N)Cc1ccc(-c2cn(Cc3ccc(F)cc3)nn2)cc1", "values": [{"measurement": "inhibition in vivo at 10 mg/kg", "setting": "Rattus norvegicus [1]", "result": 28.8, "unit": "%"}, {"measurement": "inhibition in vivo at 3 mg/kg", "setting": "Rattus norvegicus [2]", "result": 21.7, "unit": "%"}, {"measurement": "inhibition in vivo at 1 mg/kg", "setting": "Rattus norvegicus [3]", "result": 20.8, "unit": "%"}, {"measurement": "inhibition", "setting": "Rattus norvegicus [4]", "result": "Dose-dependent effect"}]}]}
